Assay results published in ChEMBL document CHEMBL5233210, “Pyrazolone structural motif in medicinal chemistry: Retrospect and prospect” (Eur J Med Chem, 2020).
Values after ≈ are worked out from the molar mass of the structure shown.

Legend:
Aspergillus niger = assay: Antifungal activity against Aspergillus niger; type: functional
Pseudomonas aeruginosa = assay: Antibacterial activity against Pseudomonas aeruginosa; type: functional
Streptococcus pyogenes = assay: Antibacterial activity against Streptococcus pyogenes; type: functional
Escherichia coli = assay: Antibacterial activity against Escherichia coli; type: functional
Candida albicans = assay: Antifungal activity against Candida albicans; type: functional
Staphylococcus aureus = assay: Antibacterial activity against Staphylococcus aureus; type: functional
Bacillus subtilis = assay: Antibacterial activity against Bacillus subtilis; type: functional
MCF7 = assay: Cytotoxicity against human MCF7 cells; type: functional, cell-based
Rattus norvegicus = assay: Antiinflammatory activity against rat assessed as inhibition of carrageenan-induced paw edema relative to control; type: functional; set-up: concentration or dose not given beside the values

MIC (Aspergillus niger) | MIC (Pseudomonas aeruginosa) | MIC (Streptococcus pyogenes) | MIC (Escherichia coli) | MIC (Candida albicans) | MIC (Staphylococcus aureus) | MIC (Bacillus subtilis) | Compound | IC50 (MCF7) | Activity (Rattus norvegicus)
> 1000 µg/mL | 200 µg/mL (≈ 371 µM) | 100 µg/mL (≈ 186 µM) | 62.5 µg/mL (≈ 116 µM) | 1000 µg/mL (≈ 1860 µM) | 100 µg/mL (≈ 186 µM) | 100 µg/mL (≈ 186 µM) | CCCC1=NN(c2c(F)c(F)cc(F)c2F)C(=O)/C1=C\c1cn(-c2ccccc2)nc1-c1ccc(Cl)cc1 | – | –
6.8 µg/mL (≈ 15.8 µM) | 7.39 µg/mL (≈ 17.2 µM) | – | 12.7 µg/mL (≈ 29.5 µM) | 6.18 µg/mL (≈ 14.4 µM) | 7.3 µg/mL (≈ 17 µM) | – | Nc1cc(=O)n(C(=O)CN2N=C(C(F)(F)F)/C(=N/Nc3ccc(Cl)cc3)C2=O)[nH]1 | – | –
5.8 µg/mL (≈ 16.3 µM) | – | – | 125 µg/mL (≈ 352 µM) | 11.6 µg/mL (≈ 32.6 µM) | – | – | CC1=NN(C(=S)NN)C(=O)/C1=N/Nc1ccc(S(N)(=O)=O)cc1 | – | –
> 1000 µg/mL | 500 µg/mL (≈ 1100 µM) | 200 µg/mL (≈ 438 µM) | 500 µg/mL (≈ 1100 µM) | 250 µg/mL (≈ 548 µM) | 62.5 µg/mL (≈ 137 µM) | 62.5 µg/mL (≈ 137 µM) | O=C1/C(=C\c2coc3ccccc3c2=O)C(C(F)(F)F)=NN1c1c(F)c(F)cc(F)c1F | – | –
7.52 µg/mL (≈ 15.9 µM) | 10.2 µg/mL (≈ 21.6 µM) | – | 13.3 µg/mL (≈ 28 µM) | 8.58 µg/mL (≈ 18.1 µM) | 7.96 µg/mL (≈ 16.8 µM) | – | Nc1cc(=O)n(C(=O)CN2N=C(C(F)(F)F)/C(=N/Nc3ccc(Br)cc3)C2=O)[nH]1 | – | –
50 µg/mL (≈ 140 µM) | – | – | – | – | 25 µg/mL (≈ 69.9 µM) | 25 µg/mL (≈ 69.9 µM) | NC1=NNC(=O)C1C(CS(=O)(=O)Cc1ccccc1)c1ccccc1 (stereo unspecified) | – | –
500 µg/mL (≈ 1020 µM) | 62.5 µg/mL (≈ 127 µM) | 200 µg/mL (≈ 408 µM) | 125 µg/mL (≈ 255 µM) | 1000 µg/mL (≈ 2040 µM) | 250 µg/mL (≈ 509 µM) | 250 µg/mL (≈ 509 µM) | O=C1/C(=C\c2coc3ccc(Cl)cc3c2=O)C(C(F)(F)F)=NN1c1c(F)c(F)cc(F)c1F | – | –
> 1000 µg/mL | 250 µg/mL (≈ 490 µM) | 62.5 µg/mL (≈ 122 µM) | 200 µg/mL (≈ 392 µM) | > 1000 µg/mL | 125 µg/mL (≈ 245 µM) | 125 µg/mL (≈ 245 µM) | CCCC1=NN(c2c(F)c(F)cc(F)c2F)C(=O)/C1=C\c1cn(-c2ccccc2)nc1-c1cccs1 | – | –
5.3 µg/mL (≈ 12.5 µM) | 9.58 µg/mL (≈ 22.5 µM) | – | 15.3 µg/mL (≈ 35.9 µM) | 9.22 µg/mL (≈ 21.7 µM) | 8.02 µg/mL (≈ 18.9 µM) | – | COc1ccc(N/N=C2\C(=O)N(CC(=O)n3[nH]c(N)cc3=O)N=C2C(F)(F)F)cc1 | – | –
2.9 µg/mL (≈ 9.99 µM) | – | – | 125 µg/mL (≈ 431 µM) | 7.8 µg/mL (≈ 26.9 µM) | – | – | CC1=NN(C(=S)NN)C(=O)/C1=N/Nc1ccc(C)cc1 | – | –
5.1 µg/mL (≈ 11.2 µM) | – | – | 4.08 µg/mL (≈ 8.98 µM) | – | – | 10 µg/mL (≈ 22 µM) | O=C1/C(=C2/CN(c3ccccc3)N=C2c2ccccc2)C(c2ccccc2)=NN1c1ccccc1 | – | –
5.8 µg/mL (≈ 18.7 µM) | – | – | 188 µg/mL (≈ 603 µM) | 15.6 µg/mL (≈ 50.2 µM) | – | – | CC1=NN(C(=S)NN)C(=O)/C1=N/Nc1ccc(Cl)cc1 | – | –
6.28 µg/mL (≈ 14.3 µM) | 11.9 µg/mL (≈ 27.1 µM) | – | 26.7 µg/mL (≈ 60.8 µM) | 9.08 µg/mL (≈ 20.7 µM) | 12 µg/mL (≈ 27.4 µM) | – | CCOc1ccc(N/N=C2\C(=O)N(CC(=O)n3[nH]c(N)cc3=O)N=C2C(F)(F)F)cc1 | – | –

Continued, compound first:

Compound | MIC (Aspergillus niger) | MIC (Pseudomonas aeruginosa) | MIC (Streptococcus pyogenes) | MIC (Escherichia coli) | MIC (Candida albicans) | MIC (Staphylococcus aureus) | MIC (Bacillus subtilis) | IC50 (MCF7) | Activity (Rattus norvegicus)
Cc1c(-n2cc(C#N)c(=O)n(-c3ccc(I)cc3)c2=S)c(=O)n(-c2ccccc2)n1C | – | – | – | – | – | – | – | 30.7 µM | –
CC1=NN(c2ccccc2)C(=O)C1c1cc(-c2ccc(O)cc2)nc(N)n1 (stereo unspecified) | – | – | – | – | – | – | – | – | 61.84%
COc1cc(-c2cc(C3C(=O)N(c4ccc([N+](=O)[O-])cc4[N+](=O)[O-])N=C3C)nc(N)n2)ccc1O (stereo unspecified) | – | – | – | – | – | – | – | – | 62.51%
NC1=NNC(=O)C1(CCS(=O)(=O)c1ccccc1)CCS(=O)(=O)c1ccccc1 | 100 µg/mL (≈ 230 µM) | – | – | – | – | 100 µg/mL (≈ 230 µM) | 100 µg/mL (≈ 230 µM) | – | –
Cc1c(N/C=C2\C(=N)N(c3ccccc3)N=C2N)c(=O)n(-c2ccccc2)n1C | – | – | – | – | – | – | – | 60.7 µM | –
Cc1c(-n2cc(C#N)c(=O)n(-c3ccc(S(=O)(=O)c4ccc(-n5c(=O)c(C#N)cn(-c6c(C)n(C)n(-c7ccccc7)c6=O)c5=S)cc4)cc3)c2=S)c(=O)n(-c2ccccc2)n1C | – | – | – | – | – | – | – | 37.2 µM | –
Cc1c(-n2cc3c(N)nnc-3n(-c3ccccc3)/c2=N\N)c(=O)n(-c2ccccc2)n1C | – | – | – | – | – | – | – | 45 µM | –
CC1=NN(c2ccccc2)C(=O)C1c1cc(-c2ccc(N(C)C)cc2)nc(N)n1 (stereo unspecified) | – | – | – | – | – | – | – | – | 62%
COc1cc(-c2cc(C3C(=O)N(c4ccccc4)N=C3C)nc(N)n2)ccc1O (stereo unspecified) | – | – | – | – | – | – | – | – | 61.23%
COc1ccc(-c2cc(C3C(=O)N(c4ccccc4)N=C3C)nc(N)n2)cc1 (stereo unspecified) | – | – | – | – | – | – | – | – | 61.02%
CC1=NN(c2ccc([N+](=O)[O-])cc2[N+](=O)[O-])C(=O)C1c1cc(-c2ccc(N(C)C)cc2)nc(N)n1 (stereo unspecified) | – | – | – | – | – | – | – | – | 62.05%
